Experimental data: PubChem BioAssay (NCI)
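How tested: cells in 96-well plates exposed to compound for 48 hours at five concentrations. The concentration for 50% growth inhibition is given as GI50. TGI: total growth inhibition.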

Experiments:
Experiment in all cases: NCI anticancer screen, dose series, 48 h
SW-620 colon = system: SW-620 colon
HCC-2998 colon = system: HCC-2998 colon
MOLT-4 leukemia = system: MOLT-4 leukemia
HS 578T breast = system: HS 578T breast
UACC-257 melanoma = system: UACC-257 melanoma
MDA-MB-435 = system: MDA-MB-435
HCT-116 colon = system: HCT-116 colon
SF-539 CNS = system: SF-539 CNS
DU-145 prostate = system: DU-145 prostate
OVCAR-4 ovarian = system: OVCAR-4 ovarian
T-47D breast = system: T-47D breast
COLO 205 colon = system: COLO 205 colon
K-562 leukemia = system: K-562 leukemia
SN12C renal = system: SN12C renal
SNB-75 CNS = system: SNB-75 CNS
ACHN renal = system: ACHN renal
HOP-62 NSCLC = system: HOP-62 NSCLC
A549 NSCLC = system: A549 NSCLC
MDA-MB-231 breast = system: MDA-MB-231 breast
MALME-3M melanoma = system: MALME-3M melanoma
NCI/ADR-RES ovarian = system: NCI/ADR-RES ovarian
OVCAR-5 ovarian = system: OVCAR-5 ovarian
LOX IMVI melanoma = system: LOX IMVI melanoma
HCT-15 colon = system: HCT-15 colon
MCF7 breast = system: MCF7 breast
RPMI-8226 leukemia = system: RPMI-8226 leukemia
KM12 colon = system: KM12 colon
NCI-H23 lung = system: NCI-H23 lung
M14 melanoma = system: M14 melanoma
NCI-H522 lung = system: NCI-H522 lung
SK-OV-3 ovarian = system: SK-OV-3 ovarian
OVCAR-8 ovarian = system: OVCAR-8 ovarian
CCRF-CEM leukemia = system: CCRF-CEM leukemia
OVCAR-3 ovarian = system: OVCAR-3 ovarian
CAKI-1 renal = system: CAKI-1 renal
NCI-H460 lung = system: NCI-H460 lung
HL-60(TB) leukemia = system: HL-60(TB) leukemia
HT29 colon = system: HT29 colon
786-0 renal = system: 786-0 renal
SF-268 CNS = system: SF-268 CNS
A498 renal = system: A498 renal
BT-549 breast = system: BT-549 breast
PC-3 prostate = system: PC-3 prostate
UO-31 renal = system: UO-31 renal
HOP-92 NSCLC = system: HOP-92 NSCLC
UACC-62 melanoma = system: UACC-62 melanoma
U251 CNS = system: U251 CNS
SK-MEL-2 melanoma = system: SK-MEL-2 melanoma
SK-MEL-5 melanoma = system: SK-MEL-5 melanoma
SK-MEL-28 melanoma = system: SK-MEL-28 melanoma
SNB-19 CNS = system: SNB-19 CNS
IGROV1 ovarian = system: IGROV1 ovarian
SR leukemia = system: SR leukemia
TK-10 renal = system: TK-10 renal
SF-295 CNS = system: SF-295 CNS

`Clc1ccc(Nc2ccnc(NCCNc3ccnc4cc(Cl)ccc34)n2)cc1` showed a GI50 (SW-620 colon) of 1140 nM, a TGI (SW-620 colon) of 2640 nM and a GI50 (HCC-2998 colon) of 1220 nM. The TGI (HCC-2998 colon) was 2590 nM, the GI50 (MOLT-4 leukemia) was 1490 nM and the TGI (MOLT-4 leukemia) was 3550 nM. It also gave a GI50 (HS 578T breast) of 1830 nM, a TGI (HS 578T breast) of 4380 nM and a GI50 (UACC-257 melanoma) of 1680 nM. It also gave a TGI (UACC-257 melanoma) of 3170 nM, a GI50 (MDA-MB-435) of 1370 nM and a TGI (MDA-MB-435) of 2680 nM. The GI50 (HCT-116 colon) was 522 nM, the TGI (HCT-116 colon) was 2120 nM and the GI50 (SF-539 CNS) was 1300 nM. For the same molecule, the TGI (SF-539 CNS) was 2800 nM, the GI50 (DU-145 prostate) was 1590 nM and the TGI (DU-145 prostate) was 2970 nM. The GI50 (OVCAR-4 ovarian) was 1030 nM, the TGI (OVCAR-4 ovarian) was 2310 nM and the GI50 (T-47D breast) was 1150 nM. The TGI (T-47D breast) was 3050 nM, the GI50 (COLO 205 colon) was 1310 nM and the TGI (COLO 205 colon) was 2920 nM. The GI50 (K-562 leukemia) was 501 nM, the TGI (K-562 leukemia) was 1870 nM and the GI50 (SN12C renal) was 1510 nM. The TGI (SN12C renal) was 3470 nM, the GI50 (SNB-75 CNS) was 1220 nM and the TGI (SNB-75 CNS) was 2470 nM. It also gave a GI50 (ACHN renal) of 1630 nM, a TGI (ACHN renal) of 3090 nM and a GI50 (HOP-62 NSCLC) of 1270 nM. It also gave a TGI (HOP-62 NSCLC) of 2660 nM, a GI50 (A549 NSCLC) of 1530 nM and a TGI (A549 NSCLC) of 3100 nM. For the same molecule, the GI50 (MDA-MB-231 breast) was 1590 nM, the TGI (MDA-MB-231 breast) was 3310 nM and the GI50 (MALME-3M melanoma) was 1740 nM. It also gave a TGI (MALME-3M melanoma) of 3480 nM, a GI50 (NCI/ADR-RES ovarian) of 1610 nM and a TGI (NCI/ADR-RES ovarian) of 3510 nM. For the same molecule, the GI50 (OVCAR-5 ovarian) was 1160 nM, the TGI (OVCAR-5 ovarian) was 2450 nM and the GI50 (LOX IMVI melanoma) was 1290 nM. The TGI (LOX IMVI melanoma) was 2620 nM, the GI50 (HCT-15 colon) was 1030 nM and the TGI (HCT-15 colon) was 2360 nM. It also gave a GI50 (MCF7 breast) of 1080 nM, a TGI (MCF7 breast) of 2590 nM and a GI50 (RPMI-8226 leukemia) of 1380 nM. The TGI (RPMI-8226 leukemia) was 3730 nM, the GI50 (KM12 colon) was 1620 nM and the TGI (KM12 colon) was 3060 nM. The GI50 (NCI-H23 lung) was 1440 nM, the TGI (NCI-H23 lung) was 2910 nM and the GI50 (M14 melanoma) was 1400 nM. For the same molecule, the TGI (M14 melanoma) was 3090 nM, the GI50 (NCI-H522 lung) was 1700 nM and the TGI (NCI-H522 lung) was 3270 nM. The GI50 (SK-OV-3 ovarian) was 1440 nM, the TGI (SK-OV-3 ovarian) was 2760 nM and the GI50 (OVCAR-8 ovarian) was 1590 nM. The TGI (OVCAR-8 ovarian) was 3370 nM, the GI50 (CCRF-CEM leukemia) was 1010 nM and the TGI (CCRF-CEM leukemia) was 2620 nM. It also gave a GI50 (OVCAR-3 ovarian) of 1360 nM, a TGI (OVCAR-3 ovarian) of 2690 nM and a GI50 (CAKI-1 renal) of 1590 nM. The TGI (CAKI-1 renal) was 3010 nM, the GI50 (NCI-H460 lung) was 1340 nM and the TGI (NCI-H460 lung) was 2860 nM. For the same molecule, the GI50 (HL-60(TB) leukemia) was 2090 nM, the TGI (HL-60(TB) leukemia) was 4920 nM and the GI50 (HT29 colon) was 615 nM. For the same molecule, the TGI (HT29 colon) was 2070 nM, the GI50 (786-0 renal) was 1620 nM and the TGI (786-0 renal) was 3440 nM. It also gave a GI50 (SF-268 CNS) of 1450 nM, a TGI (SF-268 CNS) of 2820 nM and a GI50 (A498 renal) of 1130 nM. The TGI (A498 renal) was 2390 nM, the GI50 (BT-549 breast) was 1500 nM and the TGI (BT-549 breast) was 3200 nM. It also gave a GI50 (PC-3 prostate) of 1190 nM, a TGI (PC-3 prostate) of 3150 nM and a GI50 (UO-31 renal) of 1210 nM. It also gave a TGI (UO-31 renal) of 2600 nM, a GI50 (HOP-92 NSCLC) of 126 nM and a TGI (HOP-92 NSCLC) of 2000 nM. The GI50 (UACC-62 melanoma) was 1690 nM, the TGI (UACC-62 melanoma) was 3170 nM and the GI50 (U251 CNS) was 1330 nM. For the same molecule, the TGI (U251 CNS) was 2670 nM, the GI50 (SK-MEL-2 melanoma) was 1960 nM and the TGI (SK-MEL-2 melanoma) was 3500 nM. It also gave a GI50 (SK-MEL-5 melanoma) of 1310 nM, a TGI (SK-MEL-5 melanoma) of 2590 nM and a GI50 (SK-MEL-28 melanoma) of 1580 nM. For the same molecule, the TGI (SK-MEL-28 melanoma) was 3030 nM, the GI50 (SNB-19 CNS) was 1540 nM and the TGI (SNB-19 CNS) was 3070 nM. For the same molecule, the GI50 (IGROV1 ovarian) was 1430 nM, the TGI (IGROV1 ovarian) was 3120 nM and the GI50 (SR leukemia) was 1390 nM. It also gave a TGI (SR leukemia) of 3430 nM, a GI50 (TK-10 renal) of 1760 nM and a TGI (TK-10 renal) of 3170 nM. For the same molecule, the GI50 (SF-295 CNS) was 1160 nM and the TGI (SF-295 CNS) was 2420 nM.
